Data from US11286238B2, “Melatonin derivatives, method thereof, and use thereof” (Xiamen Nuokangde Biological Technology Co., Ltd., priority 2020, dated 2022).

Tests used:
B16F10 cell lines = experiment: Cytotoxicity assay (CCK-8); assay type: cell-based; conditions: for Effect on cell proliferation at a low concentration / Effect on cell proliferation rate at higher concentrations: B16F10, 24 hours; for Effect on cell proliferation at a low concentration: CCK-8, absorbance 450 nm; for Effect on cell proliferation rate at higher concentrations: CCK-8, 5 mM and 10 mM
Description: B16F10 cell lines were incubated into a plate with 96 wells. After cell adherence, a Mel solution with different concentrations or a Mels solution with different concentrations was respectively added to one of the 96 wells in turn. Final concentrations of the Mel solution or the Mels solution were respectively 10 μM (10 μmol/L), 100 μM (100 μmol/L), 1 mM (1 mmol/L), 5 mM (5 mmol/L), and 10 mM (10 mmol/L). After incubating for 24 hours, CCK-8 (Cell Counting Kit-8) was added into each one of the 96 wells. Absorbance of the Mel solution and the Mels solution was measured at 450 nm.

[1] = as disclosed in SCCS Opinion on MLT, 23 Mar. 2010; cited from earlier work
mice = experiment: Sleep experiment in sodium pentobarbital mouse sleep models; assay type: in vivo
Description: Mouse sleep models were established by injecting 300 μL 1% sodium pentobarbital solution into mice, and then dividing the mice into three groups. Each group comprised five mice. A first group of the three groups were injected with 100 μL normal saline as a control group, a second group of the three groups were injected with 100 μL natural unmodified melatonin (Mel) solution, a concentration of Mel was 86 μM (86 μmol/L) or 860 nM (860 nmol/L), and a third group of the three groups was injected with modified melatonin (Mels) solution with the same concentration and volume as that of the second group. A sleep duration began to be recorded one minute after a loss of righting reflex, and recording ended when the righting reflex returned.

C57/B6 mice = experiment: Safety verification in vivo (body weight and diet changes); design: species or system mouse; conditions: intraperitoneal
Description: To test a safety of Mels of Embodiment 1 in vivo, Mel, Mels, or saline was intraperitoneally injected into mice. Using C57/B6 mice (about 18 g), the mice were randomly divided into three groups: a control group, a Mel group, and a Mels group. Then, 200 μL of normal saline, Mel and Mels solution (dissolving Mel and Mels in saline containing 5% DMSO, 10 mmol/L) were respectively intraperitoneally injected into the mice. The injection process was repeated three times at days 2, 6, and 10, and body weight changes and diet changes of mice were recorded. […] In short, Mels has lower toxicity and good safety in vitro and in vivo.

[2] = Solubility determination in water; assay type: physicochemical
Description: In order to evaluate solubility of a new melatonin derivative of Embodiment 1, solubility of Mel and Mels were tested. […] Therefore, the solubility of Mels is nearly 700 times (695 times) the solubility of Mel (FIG. 4). Good water solubility of Mels can greatly improve application and greatly contribute to the research of this molecule in the field of medicine and biology.

| Compound | Effect on cell proliferation at a low concentration (B16F10 cell lines) | Effect on cell proliferation rate at higher concentrations (B16F10 cell lines) | Solubility in 100 mL water [1] [g] | Cytotoxicity on cells compared with Mel (B16F10 cell lines; B16F10, at an even higher concentration) | Sleep time of mice (mice; mice given 300 μL 1% sodium pentobarbital, 100 μL of 86 μM or 860 nM solution injected, prolonged from 1 hour) [h] | Effect on sleep compared with Mel (mice; same concentration and volume as Mel (86 μM or 860 nM, 100 μL)) | Effect on body weights and diets of the mice (C57/B6 mice; 200 μL of 10 mmol/L in saline with 5% DMSO, days 2, 6 and 10, versus control group and Mel group) | Safety in vivo (C57/B6 mice; C57/B6 mice, 10 mmol/L, 200 μL, three injections) | solubility ([2]; in 100 mL water) [mg/mL] | Solubility of Mels relative to solubility of Mel ([2]; water solubility ratio versus melatonin) [times] |
| --- | --- | --- | --- | --- | --- | --- | --- | --- | --- | --- |
| COc1ccc2[nH]cc(CCNC(C)=O)c2c1 [Mel, melatonin] | no effects on cell proliferation | affected cell proliferation rate | 0.2 |  |  |  |  |  |  |  |
| COc1ccc2c(c1)c(CCNC(C)=O)cn2CCCCS(=O)(=O)[O-].[Na+] [Mels, 4-(3-(2-acetamidoethyl)-5-methoxy-1H-indol-1-yl) butane-1-sulfonate] | no effects on cell proliferation | little affected on cell proliferation rate |  | much smaller than that of Mel | 3 | same effect as Mel | no significant effect | good safety in vivo | 1600 | 695 |
